Experimental data taken from patent US20190307776A1, “AZA-S[…] HUMAN IMMUNODEFICIENCY VIRUS REPLICATION” (priority 2016, published 2019).

What follows are molecules tested on recombinant NL4-3 virus (assay: HIV cell culture assay). Conditions: Human immunodeficiency virus 1, NL43, MT2.
Type: cell-based
In short: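 Antiviral activity measured in MT-2 cells infected 4–5 days with NL4-3 carrying Renilla luciferase in place of part of nef plus Gag P373S, in the presence of serial inhibitor dilutions. Read-out was luciferase activity by Dual Luciferase lysis/substrate mix.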
C=C(C)[C@@H]1CC[C@]2(CNCCCN3CCS(=O)(=O)CC3)CC[C@]3(C)[C@H](CC[C@@H]4[C@@]5(C)CCN(c6ccc(C(=O)O)cc6)C(C)(C)[C@@H]5CC[C@]43C)[C@@H]12 [Example 48, 4-((4aR,6aR,6bR,8aS,11R,11aR,11bR,13aR,13bR)-8a-(((3-(1,1-dioxidothiomorpholino)propyl)amino)methyl)-4,4,6a,6b,13b-pentamethyl-11-(prop-1-en-2-yl)hexadecahydro-1H-cyclopenta[5,6]naphtho[2,1-f]isoquinolin-3(2H,4H,13bH)-yl)benzoic acid] gave an EC50 of 5 nM.
In the case of C=C(C)[C@@H]1CC[C@]2(CNCCCN3CCS(=O)(=O)CC3)CC[C@]3(C)[C@H](CC[C@@H]4[C@@]5(C)CCN(c6ncc(C(=O)O)cn6)C(C)(C)[C@@H]5CC[C@]43C)[C@@H]12 [Example 49, 2-((4aR,6aR,6bR,8aS,11R,11aR,11bR,13aR,13bR)-8a-(((3-(1,1-dioxidothiomorpholino)propyl)amino)methyl)-4,4,6a,6b,13b-pentamethyl-11-(prop-1-en-2-yl)hexadecahydro-1H-cyclopenta[5,6]naphtho[2,1-f]isoquinolin-3(2H,4H,13bH)-yl)pyrimidine-5-carboxylic acid], the EC50 is reported as 0.7 nM.
Molecule C=C(C)[C@@H]1CC[C@]2(CNCCCN3CCS(=O)(=O)CC3)CC[C@]3(C)[C@H](CC[C@@H]4[C@@]5(C)CCN(c6ncc(C(N)=O)cn6)C(C)(C)[C@@H]5CC[C@]43C)[C@@H]12 [Example 50, 2-((4aR,6aR,6bR,8aS,11R,11aR,11bR,13aR,13bR)-8a-(((3-(1,1-dioxidothiomorpholino)propyl)amino)methyl)-4,4,6a,6b,13b-pentamethyl-11-(prop-1-en-2-yl)hexadecahydro-1H-cyclopenta[5,6]naphtho[2,1-f]isoquinolin-3(2H,4H,13bH)-yl)pyrimidine-5-carboxamide] has an EC50 of 60 nM.
C=C(C)[C@@H]1CC[C@]2(CN(C)CCCN3CCS(=O)(=O)CC3)CC[C@]3(C)[C@H](CC[C@@H]4[C@@]5(C)CCN(c6ccc(C(=O)O)nc6)C(C)(C)[C@@H]5CC[C@]43C)[C@@H]12 [Example 51, 5-((4aR,6aR,6bR,8aS,11R,11aR,11bR,13aR,13bR)-8a-(((3-(1,1-dioxidothiomorpholino)propyl)(methyl)amino)methyl)-4,4,6a,6b,13b-pentamethyl-11-(prop-1-en-2-yl)hexadecahydro-1H-cyclopenta[5,6]naphtho[2,1-f]isoquinolin-3(2H,4H,13bH)-yl)picolinic acid] gave an EC50 of 26 nM.
With C=C(C)[C@@H]1CC[C@]2(C(=O)O)CC[C@]3(C)[C@H](CC[C@@H]4[C@@]5(C)CCN(c6ncc(C(=O)O)cn6)C(C)(C)[C@@H]5CC[C@]43C)[C@@H]12 [Example 52, (4aR,6aR,6bR,8aS,11R,11aR,11bR,13aR,13bR)-3-(5-carboxypyrimidin-2-yl)-4,4,6a,6b,13b-pentamethyl-11-(prop-1-en-2-yl)icosahydro-1H-cyclopenta[5,6]naphtho[2,1-f]isoquinoline-8a-carboxylic acid] the EC50 was 62 nM.
C=C(C)[C@@H]1CC[C@]2(NCCN3CCS(=O)(=O)CC3)CC[C@]3(C)[C@H](CC[C@@H]4[C@@]5(C)CCN(c6ncc(C(=O)O)cn6)C(C)(C)[C@@H]5CC[C@]43C)[C@@H]12 [Example 53, 2-((4aR,6aR,6bR,8aS,11R,11aR,11bR,13aR,13bR)-8a-((2-(1,1-dioxidothiomorpholino)ethyl)amino)-4,4,6a,6b,13b-pentamethyl-11-(prop-1-en-2-yl)hexadecahydro-1H-cyclopenta[5,6]naphtho[2,1-f]isoquinolin-3(2H,4H,13bH)-yl)pyrimidine-5-carboxylic acid] gave an EC50 of 1 nM.
With C=C(C)[C@@H]1CC[C@]2(CNCCCN3CCS(=O)(=O)CC3)CC[C@]3(C)[C@H](CC[C@@H]4[C@@]5(C)CCN(c6ccc(C(=O)O)nn6)C(C)(C)[C@@H]5CC[C@]43C)[C@@H]12 [Example 54, 6-((4aR,6aR,6bR,8aS,11R,11aR,11bR,13aR,13bR)-8a-(((3-(1,1-dioxidothiomorpholino)propyl)amino)methyl)-4,4,6a,6b,13b-pentamethyl-11-(prop-1-en-2-yl)hexadecahydro-1H-cyclopenta[5,6]naphtho[2,1-f]isoquinolin-3(2H,4H,13bH)-yl)pyridazine-3-carboxylic acid] the EC50 was 280 nM.
C=C(C)[C@@H]1CC[C@]2(CNCCCN3CCS(=O)(=O)CC3)CC[C@]3(C)[C@H](CC[C@@H]4[C@@]5(C)CCN(c6c(O)c(=O)c6=O)C(C)(C)[C@@H]5CC[C@]43C)[C@@H]12 [Example 55, 3-((4aR,6aR,6bR,8aS,11R,11aR,11bR,13aR,13bR)-8a-(((3-(1,1-dioxidothiomorpholino)propyl)amino)methyl)-4,4,6a,6b,13b-pentamethyl-11-(prop-1-en-2-yl)hexadecahydro-1H-cyclopenta[5,6]naphtho[2,1-f]isoquinolin-3(2H,4H,13bH)-yl)-4-hydroxycyclobut-3-ene-1,2-dione] gave an EC50 of 250 nM.
With C=C(C)[C@@H]1CC[C@]2(CNCCCN3CCS(=O)(=O)CC3)CC[C@]3(C)[C@H](CC[C@@H]4[C@@]5(C)CCN(c6ncc(C(=O)O)s6)C(C)(C)[C@@H]5CC[C@]43C)[C@@H]12 [Example 56, 2-((4aR,6aR,6bR,8aS,11R,11aR,11bR,13aR,13bR)-8a-(((3-(1,1-dioxidothiomorpholino)propyl)amino)methyl)-4,4,6a,6b,13b-pentamethyl-11-(prop-1-en-2-yl)hexadecahydro-1H-cyclopenta[5,6]naphtho[2,1-f]isoquinolin-3(2H,4H,13bH)-yl)thiazole-5-carboxylic acid] the EC50 was 4 nM.
